Two molecules from paper PMC3276500, “Caffeic Acid Phenethyl Ester and Its Amide Analogue Are Potent Inhibitors of Leukotriene Biosynthesis in Human Polymorphonuclear Leukocytes” (PLoS ONE, 2012) can be followed below.

pIC50: −log10 of the molar value.

The test deals with T1, 5-lipoxygenase (5-LO) (Homo sapiens, UniProt P09917).
T1 construct: gene ALOX5
T1 sequence (P09917 1-674): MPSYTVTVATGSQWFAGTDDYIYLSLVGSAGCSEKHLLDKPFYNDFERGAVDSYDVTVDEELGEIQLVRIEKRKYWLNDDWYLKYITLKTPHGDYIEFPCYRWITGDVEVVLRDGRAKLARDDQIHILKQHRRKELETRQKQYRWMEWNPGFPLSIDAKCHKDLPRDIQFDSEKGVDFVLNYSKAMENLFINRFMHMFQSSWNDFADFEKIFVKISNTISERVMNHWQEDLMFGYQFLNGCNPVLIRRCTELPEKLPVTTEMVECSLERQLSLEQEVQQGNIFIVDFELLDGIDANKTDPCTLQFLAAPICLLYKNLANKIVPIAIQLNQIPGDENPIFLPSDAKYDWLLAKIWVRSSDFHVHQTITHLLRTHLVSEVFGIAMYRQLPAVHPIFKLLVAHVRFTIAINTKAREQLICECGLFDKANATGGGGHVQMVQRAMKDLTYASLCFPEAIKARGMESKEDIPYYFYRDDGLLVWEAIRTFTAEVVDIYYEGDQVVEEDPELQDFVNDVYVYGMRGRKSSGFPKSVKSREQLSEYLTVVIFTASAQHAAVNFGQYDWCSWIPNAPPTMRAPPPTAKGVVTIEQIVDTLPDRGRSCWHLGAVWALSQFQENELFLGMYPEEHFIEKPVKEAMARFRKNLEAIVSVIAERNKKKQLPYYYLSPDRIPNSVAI
The experiment in a line: cell-free 5-LO activity assay in lysate supernatant of HEK293 cells stably transfected with 5-LO, RP-HPLC of products. In kind it is biochemical.

Usually pIC50 stands for the negative decadic logarithm of the IC50, by convention in mol/L. Higher therefore signals a small IC50. `O=C(/C=C/c1ccc(O)c(O)c1)OCCc1ccccc1` [compound 1, CAPE]: the pIC50 was 6.89. With `O=C(/C=C/c1ccc(O)c(O)c1)NCCc1ccccc1` [compound 9] the figure was 5.62.
